From ChEMBL document CHEMBL1201862, “PubChem BioAssay data set” (2004)
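Dose response: 5 concentrations. Exposure: 48 h. Format: 96-well plates. Endpoint: linear interpolation; highest concentration if not reached. GI50 is the concentration that inhibits growth by half.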 Active and inactive are the calls of the source. Rule as the data show it: active = GI50 up to about 1.1 µM and inactive = higher.

Experiments:
Experiment in all cases: DTP human tumour cell line panel, 48 h
786-0 = system: 786-0
A498 = system: A498
A549 = system: A549
ACHN = system: ACHN
BT-549 = system: BT-549
CAKI-1 = system: CAKI-1
CCRF-CEM = system: CCRF-CEM
COLO 205 = system: COLO 205
DU-145 = system: DU-145
EKVX = system: EKVX
HCC 2998 = system: HCC 2998
HCT-116 = system: HCT-116
HCT-15 = system: HCT-15
HL-60 = system: HL-60
HOP-62 = system: HOP-62
HOP-92 = system: HOP-92
HT-29 = system: HT-29
Hs-578T = system: Hs-578T
IGROV-1 = system: IGROV-1
K562 = system: K562
KM12 = system: KM12
LOX IMVI = system: LOX IMVI
M14 = system: M14
MCF7 = system: MCF7
MDA-MB-231 = system: MDA-MB-231
MDA-MB-435 = system: MDA-MB-435
MDA-N = system: MDA-N
MOLT-4 = system: MOLT-4
Malme-3M = system: Malme-3M
NCI-H226 = system: NCI-H226
NCI-H23 = system: NCI-H23
NCI-H460 = system: NCI-H460
NCI-H522 = system: NCI-H522
NCI/ADR-RES = system: NCI/ADR-RES
OVCAR-3 = system: OVCAR-3
OVCAR-4 = system: OVCAR-4
OVCAR-5 = system: OVCAR-5
OVCAR-8 = system: OVCAR-8
PC-3 = system: PC-3
RPMI-8226 = system: RPMI-8226
RXF 393 = system: RXF 393
SF-268 = system: SF-268
SF-295 = system: SF-295
SF-539 = system: SF-539
SK-MEL-28 = system: SK-MEL-28
SK-MEL-2 = system: SK-MEL-2
SK-MEL-5 = system: SK-MEL-5
SK-OV-3 = system: SK-OV-3
SN12C = system: SN12C
SNB-19 = system: SNB-19
SNB-75 = system: SNB-75
SR = system: SR
SW-620 = system: SW-620
T47D = system: T47D
TK-10 = system: TK-10
U-251 = system: U-251
UACC-257 = system: UACC-257
UACC-62 = system: UACC-62
UO-31 = system: UO-31

Measured: GI50

Cc1cc2c(c(/C=N/c3ccc(N(C)C)cc3)c1)OC1(C=C2)Oc2ccccc2C(=O)N1C (stereo not drawn)
inactive: 786-0 14.2 µM | A498 19.7 µM | A549 20.1 µM | ACHN 12.2 µM | BT-549 8.63 µM | CAKI-1 14.6 µM | CCRF-CEM 2.71 µM | COLO 205 17.5 µM | DU-145 14 µM | EKVX 12.5 µM | HCC 2998 16.6 µM | HCT-116 8.22 µM | HL-60 3.54 µM | HOP-62 > 43 µM | HOP-92 16.4 µM | HT-29 23.1 µM | Hs-578T 21.5 µM | IGROV-1 13.2 µM | K562 4.97 µM | KM12 15.5 µM | LOX IMVI 13 µM | M14 14.5 µM | MCF7 16.2 µM | MDA-MB-231 3.53 µM | MDA-MB-435 13 µM | MDA-N 12.5 µM | MOLT-4 1.75 µM | Malme-3M 17.7 µM | NCI-H226 23.9 µM | NCI-H23 12.5 µM | NCI-H460 18.7 µM | NCI-H522 14.4 µM | NCI/ADR-RES 16.5 µM | OVCAR-3 > 35.2 µM | OVCAR-4 12.6 µM | OVCAR-5 17.7 µM | OVCAR-8 14.2 µM | PC-3 > 35.5 µM | RPMI-8226 5.96 µM | RXF 393 11.7 µM | SF-268 17.1 µM | SF-295 21.2 µM | SF-539 10 µM | SK-MEL-28 16 µM | SK-MEL-2 > 39.2 µM | SK-MEL-5 13.9 µM | SK-OV-3 24.4 µM | SN12C 15.7 µM | SNB-19 7.96 µM | SNB-75 18 µM | SR 54.2 µM | SW-620 17.3 µM | T47D 12.5 µM | TK-10 16.3 µM | U-251 15.1 µM | UACC-257 14.7 µM | UACC-62 13.1 µM | UO-31 9.2 µM
8.34 µM: HCT-15

O=c1c2ncn(COCCCl)c2n(-c2ccccc2)c(=S)n1-c1ccccc1
inactive: 786-0 > 100 µM | A498 > 100 µM | A549 > 100 µM | ACHN > 100 µM | BT-549 > 100 µM | CAKI-1 > 100 µM | CCRF-CEM > 100 µM | COLO 205 > 100 µM | DU-145 > 100 µM | EKVX > 100 µM | HCC 2998 > 100 µM | HCT-116 > 100 µM | HL-60 > 100 µM | HOP-62 > 100 µM | HOP-92 > 100 µM | HT-29 > 100 µM | Hs-578T > 100 µM | IGROV-1 > 100 µM | K562 > 100 µM | KM12 > 100 µM | LOX IMVI > 100 µM | M14 > 100 µM | MCF7 > 100 µM | MDA-MB-231 > 100 µM | MDA-MB-435 > 100 µM | MDA-N > 100 µM | MOLT-4 > 100 µM | Malme-3M > 100 µM | NCI-H226 > 100 µM | NCI-H23 > 100 µM | NCI-H460 > 100 µM | NCI-H522 > 100 µM | NCI/ADR-RES > 100 µM | OVCAR-3 > 100 µM | OVCAR-4 > 100 µM | OVCAR-5 > 100 µM | OVCAR-8 > 100 µM | PC-3 > 100 µM | RPMI-8226 79.8 µM | RXF 393 > 100 µM | SF-268 > 100 µM | SF-295 > 100 µM | SF-539 > 100 µM | SK-MEL-28 > 100 µM | SK-MEL-2 > 100 µM | SK-MEL-5 > 100 µM | SK-OV-3 > 100 µM | SN12C > 100 µM | SNB-19 > 100 µM | SNB-75 4.7 µM | SR > 100 µM | SW-620 > 100 µM | T47D > 100 µM | TK-10 > 100 µM | U-251 > 100 µM | UACC-257 > 100 µM | UACC-62 > 100 µM | UO-31 57.3 µM
> 100 µM: HCT-15
